Literature values in patent publication US6451357B1, “Method for purification of aloesin” (Unigen Pharmaceuticals, Inc., priority 2001, dated 2002).
pIC50: −log10 of the molar value.

Assays:
[1] = tested on: de-pigmentation of the skin; conditions: relative to hydroquinone
[2] = tested on: tyrosinase; conditions: in vitro
[3] = tested on: tyrosinase; conditions: Lineweaver Burk diagram

OC[C@H]1O[C@@H](Oc2ccc(O)cc2)[C@H](O)[C@@H](O)[C@@H]1O [arbutin]
quantity required to achieve a similar effect compared to the quantity of hydroquinone used [1]: over 100 times

O=C1O[C@H]([C@@H](O)CO)C(O)=C1O [ascorbic acid]
quantity required to achieve a similar effect compared to the quantity of hydroquinone used [1]: 17 times

CC(=O)Cc1cc(=O)c2c(C)cc(O)c([C@@H]3O[C@H](CO)[C@@H](O)[C@H](O)[C@H]3O)c2o1 [aloesin]
tyrosinase inhibition in words [2]: strong inhibitor | pIC50 ([2]; substrate L-DOPA, read-out: concentration capable of 50% inhibition of tyrosinase activity): 3.70 | type of tyrosinase inhibition [3]: competitive inhibitor

COc1cc(/C=C/C(=O)O[C@@H]2[C@@H](O)[C@H](O)[C@@H](CO)O[C@H]2c2c(O)cc(C)c3c(=O)cc(CC(C)=O)oc23)ccc1O [2″-feruloylaloesin, 2″-O-feruloylaloesin]
type of tyrosinase inhibition [3]: non-competitive inhibitor
